Laboratory results published in paper PMC7306898, “Concentration-Dependent Activity of Hydromethylthionine on Clinical Decline and Brain Atrophy in a Randomized Controlled Trial in Behavioral Variant Frontotemporal Dementia” (Journal of Alzheimer's Disease, 2020).

Key:
CYP2B6 = tested on: CYP2B6; parameters: method as in Investigator's Brochure; conditions: ref Investigator's Brochure; cited from earlier work
[1] = parameters: method as in PMID 31658058; conditions: cited from earlier work
bvFTD patients [2] = test: Safety: treatment emergent adverse events, Safety Population; conditions: for deaths: none judged related to treatment
Source text: Patients were monitored throughout the study for adverse events, including use of clinical laboratory tests (including measurement of methaemoglobin by pulse CO-oximetry), physical and neurological examinations, and 12-lead electrocardiograms (ECG) at all clinic visits (screening, baseline, and weeks 2, 16, 32, 52, and 56). The Unified Parkinson’s Disease Rating Scale Part III (UPDRS) [58] was included as a motor safety outcome measure requested by a regulatory agency, as was the Columbia-Suicide Severity Rating Scale (C-SSRS) [59], which were assessed at all visits. Patients were also systematically monitored for potential serotonin syndrome using a rating scale derived from four published diagnostic criteria [60], because of a theoretical potential for serotonin syndrome [61]. By protocol, amyloid related imaging abnormalities (ARIA), serotonin toxicity, and suicidality were to be reported as serious adverse events for expedited reporting.

bvFTD patients [3] = test: Frontotemporal volume (FTV) change by MRI (Tensor-Based Morphometry); assay type: in vivo, human; conditions: Patients receiving 8 mg/day, vs Cmax,ss ≤[…], 52 weeks
Source text: The two doses were provided in identical blister packages as visually identical oral tablets to be taken for up to 52 weeks. The primary outcome was the Addenbrookes Cognitive Examination – Revised (ACE-R). The Functional Activities Questionnaire (FAQ) and reduction in progression of whole brain atrophy were alternative co-primary outcomes. Other outcomes included: Modified Alzheimer’s Disease Cooperative Study – Clinical Global Impression of Change (Modified-CGIC) determined by a third independent rater; Frontotemporal Dementia Rating Scale (FRS); MMSE (from MMSE items incorporated into ACE-R); Addenbrookes Cognitive Examination – III (a revised version of ACE-R which excludes MMSE items subject to copyright restrictions); change in brain volume measured by MRI in frontal and temporal lobes (FTV) and lateral ventricles (LVV); and the effect of hydromethylthionine in patients with known genetic mutations associated with bvFTD. Blood was collected prospectively for the purpose of population PK analyses.
MRI scans were obtained at screening and weeks 16, 32, and 52. The acquisition protocol was standardized across sites and all data were centrally collected, quality-controlled, and analyzed by the imaging core laboratory (Bioclinica). MRI data included a 3D sagittal T1-weighted sequence (using parameters compatible with the ADNI protocol) which was used for all volumetric analyses. […]

[4] = 8 mg/day (n = 110), Safety Population
[5] = 200 mg/day (n = 108), Safety Population

Compound: CN(C)c1ccc2c(c1)Sc1cc(N(C)C)ccc1N2 [hydromethylthionine, leuco-methylthioninium bis(hydromethanesulphonate)]
- induction of CYP2B6 (CYP2B6): w eak in ducer
- brain:plasma ratio compared to MTC [1]: ≥ 60 fold
- patients with TEAEs judged by the Investigator to be related to study drug (bvFTD patients [2]; 8 mg/day): 30%
- patients with a TEAE resulting in a dose reduction, interruption, or withdrawal of study drug (bvFTD patients [2]; 8 mg/day): 15 [14%]
- patients with at least one severe TEAE (bvFTD patients [2]; 8 mg/day): 13 (12%)
- subjects with myoclonus reported as an AE (bvFTD patients [2]; 8 mg/day): 2
- withdrawal rate over 12 months (bvFTD patients [2]; 8 mg/day): 15%
- Number (%) of Patients Reporting at Least One Adverse Event (TEAE) (bvFTD patients [2]; [4]): 88 (80%)
- Number (%) of patients with TEAE: Agitation (bvFTD patients [2]; [4]): 9 (8.2%)
- Number (%) of patients with TEAE: Blood folate decreased (bvFTD patients [2]; [4]): 6 (5.5%)
- Number (%) of patients with TEAE: Cough (bvFTD patients [2]; [4]): 7 (6.4%)
- Number (%) of patients with TEAE: Diarrhea (bvFTD patients [2]; [4]): 9 (8.2%)
- Number (%) of patients with TEAE: Dysuria (bvFTD patients [2]; [4]): 0
- Number (%) of patients with TEAE: Fall (bvFTD patients [2]; [4]): 10 (9.1%)
- Number (%) of patients with TEAE: Folate deficiency (bvFTD patients [2]; [4]): 2 (1.8%)
- Number (%) of patients with TEAE: Gastrointestinal disorders (bvFTD patients [2]; [4]): 28 (25.5%)
- Number (%) of patients with TEAE: Headache (bvFTD patients [2]; [4]): 8 (7.3%)
- Number (%) of patients with TEAE: Infections and infestations (bvFTD patients [2]; [4]): 38 (34.5%)
- Number (%) of patients with TEAE: Injury, poisoning and procedural complications (bvFTD patients [2]; [4]): 18 (16.4%)
- Number (%) of patients with TEAE: Insomnia (bvFTD patients [2]; [4]): 3 (2.7%)
- Number (%) of patients with TEAE: Investigations (bvFTD patients [2]; [4]): 17 (15.5%)
- Number (%) of patients with TEAE: Metabolism and nutrition disorders (bvFTD patients [2]; [4]): 12 (10.9%)
- Number (%) of patients with TEAE: Nasopharyngitis (bvFTD patients [2]; [4]): 8 (7.3%)
- Number (%) of patients with TEAE: Pollakiuria (bvFTD patients [2]; [4]): 3 (2.7%)
- Number (%) of patients with TEAE: Psychiatric disorders (bvFTD patients [2]; [4]): 29 (26.4%)
- Number (%) of patients with TEAE: Renal and urinary disorders (bvFTD patients [2]; [4]): 25 (22.7%)
- Number (%) of patients with TEAE: Respiratory, thoracic and mediastinal disorders (bvFTD patients [2]; [4]): 12 (10.9%)
- Number (%) of patients with TEAE: Urinary incontinence (bvFTD patients [2]; [4]): 13 (11.8%)
- Number (%) of patients with TEAE: Urinary tract infection (bvFTD patients [2]; [4]): 13 (11.8%)
- Number (%) of patients with TEAE: Vomiting (bvFTD patients [2]; [4]): 5 (4.5%)
- Number (%) of patients with TEAE: White blood cells urine positive (bvFTD patients [2]; [4]): 1 (0.9%)
- Number (%) of Patients Reporting at Least One Adverse Event (TEAE) (bvFTD patients [2]; 8 mg/day (n = 110), Safety Population, listed as Hydromethylthionine): 88 (80.0%)
- frequency of renal and urinary disorders (bvFTD patients [2]; 8 mg/day, above-threshold plasma levels): 26%
- frequency of renal and urinary disorders (bvFTD patients [2]; 8 mg/day, below-threshold plasma levels): 18%
- deaths (bvFTD patients [2]; 8 mg/day): 1
- patients with TEAEs judged by the Investigator to be related to study drug (bvFTD patients [2]; 200 mg/day): 56%
- patients with a TEAE resulting in a dose reduction, interruption, or withdrawal of study drug (bvFTD patients [2]; 200 mg/day): 35 [32%]
- patients with at least one severe TEAE (bvFTD patients [2]; 200 mg/day): 17 (16%)
- subjects with myoclonus reported as an AE (bvFTD patients [2]; 200 mg/day): 1
- withdrawal rate over 12 months (bvFTD patients [2]; 200 mg/day): 38%
- Number (%) of Patients Reporting at Least One Adverse Event (TEAE) (bvFTD patients [2]; [5]): 103 (95.4%)
- Number (%) of patients with TEAE: Agitation (bvFTD patients [2]; [5]): 9 (8.3%)
- Number (%) of patients with TEAE: Blood folate decreased (bvFTD patients [2]; [5]): 9 (8.3%)
- Number (%) of patients with TEAE: Cough (bvFTD patients [2]; [5]): 2 (1.9%)
- Number (%) of patients with TEAE: Diarrhea (bvFTD patients [2]; [5]): 24 (22.2%)
- Number (%) of patients with TEAE: Dysuria (bvFTD patients [2]; [5]): 6 (5.6%)
- Number (%) of patients with TEAE: Fall (bvFTD patients [2]; [5]): 13 (12.0%)
- Number (%) of patients with TEAE: Folate deficiency (bvFTD patients [2]; [5]): 6 (5.6%)
- Number (%) of patients with TEAE: Gastrointestinal disorders (bvFTD patients [2]; [5]): 42 (38.9%)
- Number (%) of patients with TEAE: Headache (bvFTD patients [2]; [5]): 5 (4.6%)
- Number (%) of patients with TEAE: Infections and infestations (bvFTD patients [2]; [5]): 34 (31.5%)
- Number (%) of patients with TEAE: Injury, poisoning and procedural complications (bvFTD patients [2]; [5]): 16 (14.8%)
- Number (%) of patients with TEAE: Insomnia (bvFTD patients [2]; [5]): 7 (6.5%)
- Number (%) of patients with TEAE: Investigations (bvFTD patients [2]; [5]): 34 (31.5%)
- Number (%) of patients with TEAE: Metabolism and nutrition disorders (bvFTD patients [2]; [5]): 14 (13.0%)
- Number (%) of patients with TEAE: Nasopharyngitis (bvFTD patients [2]; [5]): 7 (6.5%)
- Number (%) of patients with TEAE: Nervous system disorders (bvFTD patients [2]; [5]): 27 (25.0%)
- Number (%) of patients with TEAE: Pollakiuria (bvFTD patients [2]; [5]): 10 (9.3%)
- Number (%) of patients with TEAE: Psychiatric disorders (bvFTD patients [2]; [5]): 31 (28.7%)
- Number (%) of patients with TEAE: Renal and urinary disorders (bvFTD patients [2]; [5]): 28 (25.9%)
- Number (%) of patients with TEAE: Respiratory, thoracic and mediastinal disorders (bvFTD patients [2]; [5]): 8 (7.4%)
- Number (%) of patients with TEAE: Urinary incontinence (bvFTD patients [2]; [5]): 9 (8.3%)
- Number (%) of patients with TEAE: Urinary tract infection (bvFTD patients [2]; [5]): 14 (13.0%)
- Number (%) of patients with TEAE: Vomiting (bvFTD patients [2]; [5]): 9 (8.3%)
- Number (%) of patients with TEAE: White blood cells urine positive (bvFTD patients [2]; [5]): 6 (5.6%)
- deaths (bvFTD patients [2]; 200 mg/day): 3
- serotonin syndrome reported as an AE (bvFTD patients [2]; both doses, 20-item structured examination): No subject had serotonin syndrome reported as an AE
- FTV: Difference±SEM for Cmax,ss > […] (bvFTD patients [3]): 0.72±0.27 cm^3
